The values below come from patent US20230257653A1, “FRACTAL FORMULATIONS” (NANOGYRE Sprl., priority 2020, published 2023).

≈ marks a conversion by molar mass, not a printed value. Where two headings read alike, the source gives them in different places. A value given as a limit tells only on which side of the number the result lay.

Data set [1] can be described thus: Solubilization of hydrophobic cargo in betaine/Polysorbate 80/water liquid crystal, centrifugation 4000 rpm. On the procedure: Mixing 2 ml of distilled water and 40 μL of Polysorbate 80, then adding 400 mg of pure curcumin, manually mixing and then adding 2 g of betaine all again mixed by vigorous manual stirring. The mixture of the 4 ingredients is then subjected for 20 minutes to a centrifugation of 4000 rpm.
(§1) The mixture of the 4 ingredients is then subjected for 30 minutes to a centrifugation of 4000 rpm.
The mixture of the 4 ingredients is then subjected for 40 minutes to a centrifugation of 4000 rpm.
as §1
Mixing 2 ml of distilled water and 35 μL of Polysorbate 80, then adding 50 mg of Clofazimine, mixing manually and then subjecting to a centrifugation of 4000 rpm and then adding 2 g of betaine all again mixed by vigorous manual stirring. The mixture of the 4 ingredients is then subjected for 30 minutes to a centrifugation of 4000 rpm.

A short description of data set [2]: Visual stability of the mother solution diluted in distilled water (pH 7) or acetic acid (pH 2.2). The conditions noted are these: absence of light, 24 h. In kind it is physicochemical. The protocol:
(§2) 400 μl of the solution produced are taken and poured into a tube of 5 ml of distilled water (pH 7).
400 μl of the solution produced are taken and poured into a tube of 5 ml of acetic acid (pH 2.2).
as §2
200 μl of the solution produced are taken and poured into a tube of 5 ml of distilled water (pH 7).
200 μl of the solution produced are taken and poured into a tube of 5 ml of acetic acid (pH 2.2).
250 μl of the solution produced are taken and poured into a tube of 5 ml of distilled water (pH 7).
250 μl of the solution produced are taken and poured into a tube of 5 ml of acetic acid (pH 2.2).

Data set [3] is described as follows: Storage stability of the mother solution (deposition). The conditions noted are these: no ethanol.
The nature of data set [4]: Redissolution of dried, ground liquid crystal powders and visual pH variation test. Type of data set: physicochemical. The conditions noted are these: for changes of resolubilized dry powder solution over time: absence of light, 24 h. The protocol:
The remaining solution of the preceding example is poured into a glass Petri dish (diameter 35 mm) and subjected to drying at 60° C. in a hot air dehydrator (Stockli).
The dry product is then ground until it reaches±50 Mesh and stored in the absence of light and moisture for 10 days.
Next, 100 mg of dry powder are taken and poured into a tube of 5 ml of distilled water (pH 7).
Next, 100 mg of dry powder are taken and poured into a tube of 5 ml of acetic acid (pH 2.2).
Then this acidic solution is brought to an alkaline pH of 8 by adding sodium bicarbonate, in order to mimic the conditions of the pH differences encountered in the stomach and then the intestine.

The conditions of data set [5]: octanol/water partition coefficient; cited from earlier work.
The conditions of data set [6]: substance alone; cited from earlier work.
Data set [7] in a line: DLS (Dynamic Light Scattering) particle size of resolubilized dry powder, Zetasizer. In kind it is physicochemical. The conditions noted are these: 100 mg dry powder in 100 ml pure water, kept in the dark 14 days. The protocol: 100 mg of dry powder of Curcumin of the preceding example are dissolved in 100 ml of pure water before being kept in the dark for 14 days. This solution is then evaluated with DLS (Dynamic Light Scattering) in a Zetasizer apparatus (University of Namur).

Setting [8] is: mother solution poured into 5 ml acetic acid (pH 2.2).
The mark [9] stands for this setting: mother solution poured into 5 ml distilled water (pH 7).

Consider `C=C(C)[C@@H]1CCC(C)=C[C@H]1c1c(O)cc(CCCCC)cc1O` [Cannabidiol], for which, in data set [1] (2 ml water, Polysorbate 80, 2 g betaine, no ethanol), the “estimated concentration of mother solution after centrifugation” value (from here on “estimated concentration”) was 47 mg/mL. In addition, the “changes of diluted solution over time” value in data set [2] (setting [8]) and in data set [2] (setting [9]) was “no changes over time” each time. Besides, in data set [3], the “stability of mother solution on storage” value is given as “remained stable without any deposition, or modification for a year”.
`CC(C)/N=c1\cc2n(-c3ccc(Cl)cc3)c3ccccc3nc-2cc1Nc1ccc(Cl)cc1` [Clofazimine]: in data set [1], the “estimated concentration” value is 14.7 mg/mL. Further, the “factor by which solubility in water was multiplied” value in data set [1] came out at 9730. In addition, the “solubilization result (visual)” value in data set [1] is “completely solubilized”. Moreover, the “changes of diluted solution over time” value in data set [2] (setting [8]) and in data set [2] (setting [9]) was “no changes over time” in each case. The “dissolution of dry powder” value in data set [4] (100 mg dry powder (stored 10 days) in 5 ml acetic acid (pH 2.2)) and in data set [4] (100 mg dry powder (stored 10 days) in 5 ml distilled water (pH 7)) was “immediately solubilizes” each time. For the same compound, the “changes of resolubilized dry powder solution over time” value in data set [4] (5 ml acetic acid (pH 2.2)) and in data set [4] (5 ml distilled water (pH 7)) was “no changes over time” each time. In data set [4] (pH 2.2 solution brought to pH 8 with sodium bicarbonate), the “stability of the acidic solution brought to alkaline pH” value is given as “remains stable without any precipitation or modification”. Besides, the “Log P” value in data set [5] is listed as 7.39. Also, in data set [6], the “Solubility in Water” value was 1.51 µg/mL (≈ 3.19 µM).
Regarding `COc1cc(/C=C/C(=O)CC(=O)/C=C/c2ccc(O)c(OC)c2)ccc1O` [Curcumin], in data set [1], the “estimated concentration” value is 80 mg/mL, the “factor by which solubility in water was multiplied” value was 10,000 and the “non-solubilized fraction remaining in the bottom of the tube (pellet/base)” value is 30-40%. Moreover, the “concentration of mother solution weighted for the pellet/base” value in data set [1] (2 ml water, 40 μL Polysorbate 80, 2 g betaine, no ethanol) stood at 60000 µg/mL. Also, the “changes of diluted solution over time” value in data set [2] (setting [8]) was “no changes over time”. Also, the “changes of diluted solution over time” value in data set [2] (setting [9]) is listed as “no changes over time”. In data set [7], the “average particle size of the solution” value is given as at most 10 nanometers and the polydispersity entry is given as “very low”. In addition, the “Solubility in Water” value in data set [6] is 5.75 µg/mL (≈ 15.6 µM).

Usually Log P stands for a log measure of how a compound divides between an organic and an aqueous phase.
